Test results published in patent US11655239B2 (SHANGHAI INSTITUTE OF MATERIAL MEDICA, CHINESE ACADEMY OF …, priority 2019, dated 2023).

Columns and labels:
Format in all cases: biochemical
[1] = target: Src (Homo sapiens (Human), UniProt P12931); test: Enzyme selectivity test (ELISA), Src
Protocol: (§1) 1) Enzyme reaction substrate Poly(Glu, Tyr) 4:1 was diluted to 20 μg/mL with potassium-free PBS (10 mM sodium phosphate buffer, 150 mM NaCl, pH 7.2-7.4), and the microtiter plate was coated with 125 μL/well and placed at 37° C. for 12-16 hours of reaction. The liquid in the well was discard. The plate was washed three times with T-PBS (potassium-free PBS containing 0.1% Tween-20, 200 μL/well), 5 minutes each time. The ELISA plate was dried in an oven at 37° C. for 1 to 2 hours.
(§2) 2) Reaction buffer (50 mM HEPES pH 7.4, 50 mM MgCl2, 0.5 mM MnCl2, 0.2 mM Na3VO4, 1 mM DTT) diluted ATP solution (49 μL) was added to each well, 1 μL of the compound to be tested was added to each well, and then 50 μL of DDR2 kinase domain recombinant protein diluted in the reaction buffer was added to start the reaction. Two control wells without ATP were set in each experiment. The plate placed on a shaker (100 rpm) at 37° C. for 1 hour of reaction. The liquid in the well was discarded and the plate was washed three times with T-PBS.
(§3) 3) Antibody PY99 dilution solution (the antibody was diluted 1:500 with T-PBS containing BSA 5 mg/mL) was added at 100 μL/well, and shaken on a shaker at 37° C. for 0.5 hour of reaction. The liquid in the well was discarded and the plate was washed three times with T-PBS.
(§4) 4) Horseradish peroxidase labeled goat anti-murine secondary antibody dilution solution (the antibody is diluted 1:2000 with T-PBS containing BSA 5 mg/ml) was added at 100 μL/well, and shaken on a shaker at 37° C. for 0.5 hour of reaction. The liquid in the well was discarded and the plate was washed three times with T-PBS.
(§5) 5) 2 mg/ml of OPD color developing solution [diluted with 0.1 M citric acid-sodium citrate buffer (pH=5.4) containing 0.03% H2O2] was added at 100 μL/well and reacted for 1 to 10 minutes at 25° C. in the dark.
(§6) 6) 2M H2SO4 was added at 50 μL/well to stop the reaction, and a tunable wavelength microplate reader VERSAmax was used for reading at a wavelength of 490 nm.
(§7) The IC50 value was obtained by four-parameter regression using the software that came with the microplate reader. […]

[2] = target: FGFR-1 (Homo sapiens (Human), UniProt P11362); test: Enzyme selectivity test (ELISA), FGFR-1
Protocol: as §1, §2, §3, §4, §5, §6, §7

[3] = target: EGFR (Homo sapiens (Human), UniProt P00533); test: Enzyme selectivity test (ELISA), EGFR
Protocol: as §1, §2, §3, §4, §5, §6, §7

[4] = tested on: kinases; test: Enzyme selectivity test, kinase panel overall; conditions: kinase panel of Table 5
Text: Except that the enzyme was different, other test methods and conditions were the same as the DDR2 enzyme activity test method in Effect example 1.

[5] = target: FGFR-4 (Homo sapiens (Human), UniProt P22455); test: Enzyme selectivity test (ELISA), FGFR-4
FGFR-4, sequence (P22455 22-802, species assumed): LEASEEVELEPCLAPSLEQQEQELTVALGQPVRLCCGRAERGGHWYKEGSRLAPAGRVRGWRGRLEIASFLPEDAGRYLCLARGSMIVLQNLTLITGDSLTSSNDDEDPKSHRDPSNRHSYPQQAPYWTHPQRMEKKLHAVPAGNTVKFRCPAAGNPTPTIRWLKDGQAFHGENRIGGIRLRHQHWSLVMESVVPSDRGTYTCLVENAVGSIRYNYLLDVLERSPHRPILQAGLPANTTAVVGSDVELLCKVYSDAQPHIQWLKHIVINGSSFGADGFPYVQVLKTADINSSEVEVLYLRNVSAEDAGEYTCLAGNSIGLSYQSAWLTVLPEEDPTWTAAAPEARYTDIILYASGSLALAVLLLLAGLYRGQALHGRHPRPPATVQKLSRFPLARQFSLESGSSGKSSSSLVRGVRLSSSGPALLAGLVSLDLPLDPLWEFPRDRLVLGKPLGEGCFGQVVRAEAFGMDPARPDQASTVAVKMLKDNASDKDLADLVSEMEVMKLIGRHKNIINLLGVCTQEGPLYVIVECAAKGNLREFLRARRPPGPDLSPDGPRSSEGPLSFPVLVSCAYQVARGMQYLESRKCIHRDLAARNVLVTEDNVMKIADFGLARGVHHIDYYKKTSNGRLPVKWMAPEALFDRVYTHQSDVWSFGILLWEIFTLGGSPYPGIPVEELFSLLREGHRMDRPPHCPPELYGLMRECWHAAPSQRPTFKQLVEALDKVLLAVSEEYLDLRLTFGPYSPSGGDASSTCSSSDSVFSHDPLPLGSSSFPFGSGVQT
Protocol: as §1
as §2, with “T-PBS. […]” for “T-PBS.”
as §6, §7

[6] = target: FGFR-2 (Homo sapiens (Human), UniProt P21802); test: Enzyme selectivity test (ELISA), FGFR-2
Protocol: as §1
as §2, with “T-PBS. […]” for “T-PBS.”
as §6, §7

[7] = target: ErbB2 (Homo sapiens (Human), UniProt P04626); test: Enzyme selectivity test (ELISA), ErbB2
Protocol: as §1, §2, §3, §4, §5, §6, §7

[8] = target: ErbB4 (Homo sapiens (Human), UniProt Q15303); test: Enzyme selectivity test (ELISA), ErbB4
Protocol: as §1, §2, §3, §4, §5, §6, §7

[9] = target: Met (Homo sapiens (Human), UniProt P08581); test: Enzyme selectivity test (ELISA), Met
Protocol: as §1, §2, §3, §4, §5, §6, §7

[10] = target: RET (Homo sapiens (Human), UniProt P07949); test: Enzyme selectivity test (ELISA), RET
Protocol: as §1, §2, §3, §4, §5, §6, §7

[11] = target: C-Kit (Homo sapiens (Human), UniProt P10721); test: Enzyme selectivity test (ELISA), C-Kit
Protocol: as §1, §2, §3, §4, §5, §6, §7

[12] = target: FGFR-3 (Homo sapiens (Human), UniProt P22607); test: Enzyme selectivity test (ELISA), FGFR-3
Protocol: as §1
as §2, with “T-PBS. […]” for “T-PBS.”
as §6, §7

[13] = target: Flt-3 (Homo sapiens (Human), UniProt P36888); test: Enzyme selectivity test (ELISA), Flt-3
Flt-3, sequence (P36888 27-993, species assumed): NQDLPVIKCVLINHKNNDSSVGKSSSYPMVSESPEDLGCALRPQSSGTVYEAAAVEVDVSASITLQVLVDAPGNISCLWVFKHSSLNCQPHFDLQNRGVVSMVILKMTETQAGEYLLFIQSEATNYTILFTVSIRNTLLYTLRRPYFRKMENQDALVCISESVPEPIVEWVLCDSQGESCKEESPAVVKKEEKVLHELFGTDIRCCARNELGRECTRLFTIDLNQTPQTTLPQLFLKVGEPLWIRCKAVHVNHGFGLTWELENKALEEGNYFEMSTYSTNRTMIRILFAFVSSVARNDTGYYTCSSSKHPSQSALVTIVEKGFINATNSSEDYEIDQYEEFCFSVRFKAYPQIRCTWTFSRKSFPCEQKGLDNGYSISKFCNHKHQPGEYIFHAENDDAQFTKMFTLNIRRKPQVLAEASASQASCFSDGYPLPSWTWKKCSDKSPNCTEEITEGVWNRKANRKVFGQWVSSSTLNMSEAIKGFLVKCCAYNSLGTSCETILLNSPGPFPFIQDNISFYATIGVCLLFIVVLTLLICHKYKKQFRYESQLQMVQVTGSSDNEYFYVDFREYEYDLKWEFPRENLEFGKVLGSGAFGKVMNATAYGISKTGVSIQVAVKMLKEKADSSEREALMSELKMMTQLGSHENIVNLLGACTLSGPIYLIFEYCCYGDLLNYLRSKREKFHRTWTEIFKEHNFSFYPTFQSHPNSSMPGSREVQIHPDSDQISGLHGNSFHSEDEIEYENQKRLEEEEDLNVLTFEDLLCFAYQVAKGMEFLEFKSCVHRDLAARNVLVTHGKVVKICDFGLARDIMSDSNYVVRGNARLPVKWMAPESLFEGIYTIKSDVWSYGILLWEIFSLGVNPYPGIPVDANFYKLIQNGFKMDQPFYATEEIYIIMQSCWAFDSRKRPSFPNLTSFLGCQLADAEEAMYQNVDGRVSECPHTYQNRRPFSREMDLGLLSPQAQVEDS
Protocol: as §1, §2, §3, §4, §5, §6, §7

[14] = target: VEGFR-1 (Homo sapiens (Human), UniProt P17948); test: Enzyme selectivity test (ELISA), VEGFR-1
Protocol: as §1, §2, §3, §4, §5, §6, §7

[15] = target: ALK (Homo sapiens (Human), UniProt Q9UM73); test: Enzyme selectivity test (ELISA), ALK
Protocol: as §1, §2, §3, §4, §5, §6, §7

[16] = target: KDR (Homo sapiens (Human), UniProt P35968); test: Enzyme selectivity test (ELISA), KDR
Protocol: as §1, §2, §3, §4, §5, §6, §7

[17] = target: Abl (Homo sapiens (Human), UniProt P00519); test: Enzyme selectivity test (ELISA), Abl
Abl, sequence (P00519 whole entry, species assumed): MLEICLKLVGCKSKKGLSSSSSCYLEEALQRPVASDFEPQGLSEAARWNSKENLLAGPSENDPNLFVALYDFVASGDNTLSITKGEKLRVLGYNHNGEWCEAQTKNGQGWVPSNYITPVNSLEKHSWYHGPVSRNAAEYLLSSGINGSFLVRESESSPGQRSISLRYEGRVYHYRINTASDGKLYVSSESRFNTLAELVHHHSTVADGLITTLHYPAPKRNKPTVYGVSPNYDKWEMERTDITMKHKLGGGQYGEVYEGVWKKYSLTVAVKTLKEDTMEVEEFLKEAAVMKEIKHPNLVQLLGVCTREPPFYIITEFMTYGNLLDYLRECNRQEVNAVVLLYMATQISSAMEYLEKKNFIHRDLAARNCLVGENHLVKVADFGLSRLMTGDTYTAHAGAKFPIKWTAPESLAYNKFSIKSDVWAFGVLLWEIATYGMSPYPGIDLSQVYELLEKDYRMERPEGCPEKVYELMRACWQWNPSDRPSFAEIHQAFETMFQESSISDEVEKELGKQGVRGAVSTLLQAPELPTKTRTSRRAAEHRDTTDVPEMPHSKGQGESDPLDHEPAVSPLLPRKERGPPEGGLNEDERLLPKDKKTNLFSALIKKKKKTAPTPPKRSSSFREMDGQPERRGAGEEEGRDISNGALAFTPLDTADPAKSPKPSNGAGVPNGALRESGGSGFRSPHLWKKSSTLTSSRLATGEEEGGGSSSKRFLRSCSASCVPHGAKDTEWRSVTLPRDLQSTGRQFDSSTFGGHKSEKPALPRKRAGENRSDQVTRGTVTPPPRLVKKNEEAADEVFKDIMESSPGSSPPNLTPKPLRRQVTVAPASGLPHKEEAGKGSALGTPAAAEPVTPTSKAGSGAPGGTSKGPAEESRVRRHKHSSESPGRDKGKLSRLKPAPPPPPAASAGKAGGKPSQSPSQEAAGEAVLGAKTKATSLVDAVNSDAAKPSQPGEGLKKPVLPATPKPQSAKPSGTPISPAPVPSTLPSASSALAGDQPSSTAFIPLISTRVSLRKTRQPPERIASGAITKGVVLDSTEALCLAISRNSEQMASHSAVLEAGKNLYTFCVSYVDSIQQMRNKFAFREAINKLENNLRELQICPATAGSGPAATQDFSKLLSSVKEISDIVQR
Protocol: as §1, §2, §3, §4, §5, §6, §7

[18] = target: PDGFR-β (Homo sapiens (Human), UniProt P09619); test: Enzyme selectivity test (ELISA), PDGFR-β
PDGFR-β, sequence (P09619 33-1106, species assumed): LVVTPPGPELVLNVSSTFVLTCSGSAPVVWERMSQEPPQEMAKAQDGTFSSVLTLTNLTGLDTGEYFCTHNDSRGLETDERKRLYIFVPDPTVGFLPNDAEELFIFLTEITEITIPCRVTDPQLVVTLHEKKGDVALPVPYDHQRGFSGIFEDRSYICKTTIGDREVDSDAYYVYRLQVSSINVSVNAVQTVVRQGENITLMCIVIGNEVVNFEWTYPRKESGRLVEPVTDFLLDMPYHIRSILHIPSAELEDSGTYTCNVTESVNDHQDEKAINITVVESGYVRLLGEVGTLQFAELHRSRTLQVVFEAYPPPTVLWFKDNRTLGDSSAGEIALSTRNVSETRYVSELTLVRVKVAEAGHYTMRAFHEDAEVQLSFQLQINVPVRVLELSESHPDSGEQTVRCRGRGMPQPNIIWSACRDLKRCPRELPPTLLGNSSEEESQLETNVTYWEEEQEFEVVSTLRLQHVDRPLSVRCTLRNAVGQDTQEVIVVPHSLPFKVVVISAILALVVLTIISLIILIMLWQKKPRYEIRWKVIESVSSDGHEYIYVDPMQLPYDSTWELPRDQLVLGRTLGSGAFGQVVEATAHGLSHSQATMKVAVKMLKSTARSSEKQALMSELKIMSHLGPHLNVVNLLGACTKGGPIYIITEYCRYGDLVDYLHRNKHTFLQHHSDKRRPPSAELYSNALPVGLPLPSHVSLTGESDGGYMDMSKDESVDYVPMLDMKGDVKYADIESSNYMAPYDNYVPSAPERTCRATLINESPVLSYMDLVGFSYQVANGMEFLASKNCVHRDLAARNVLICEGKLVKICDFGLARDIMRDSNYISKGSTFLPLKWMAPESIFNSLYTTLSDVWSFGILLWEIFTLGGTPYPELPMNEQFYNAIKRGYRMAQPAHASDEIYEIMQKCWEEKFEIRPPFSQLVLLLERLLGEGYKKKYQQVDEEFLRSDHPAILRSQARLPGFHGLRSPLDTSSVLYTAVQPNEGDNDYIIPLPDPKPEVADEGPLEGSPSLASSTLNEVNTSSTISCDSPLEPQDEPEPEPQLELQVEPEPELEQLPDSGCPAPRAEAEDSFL
Protocol: as §1, §2, §3, §4, §5, §6, §7

[19] = target: AXL (Homo sapiens (Human), UniProt P30530); test: Enzyme selectivity test (ELISA), AXL
Protocol: as §1, §2, §3, §4, §5, §6, §7

[20] = target: EPH-A2 (Homo sapiens (Human), UniProt P29317); test: Enzyme selectivity test (ELISA), EPH-A2
Protocol: as §1, §2, §3, §4, §5, §6, §7

[21] = target: IGF-1R (Homo sapiens (Human), UniProt P08069); test: Enzyme selectivity test (ELISA), IGF-1R
Protocol: as §1, §2, §3, §4, §5, §6, §7

[22] = target: DDR2 (Homo sapiens (Human), UniProt Q16832); test: DDR2 enzyme activity test (ELISA); conditions: read-out: DDR2 IC50
Protocol: The optical rotation and the inhibitory activity against DDR2 enzyme of the compounds S11-A and S11-B obtained by the resolution in Example 12, and the chirally synthesized compounds S11-A′ and S11-B′ in Example 13 were tested (referred to the operation in Effect example 1), and the results are shown in Table 3 below:
Detection method: Enzyme-linked immunosorbent assay (ELISA)
Test receptor tyrosine kinase: DDR2
The kinase used in the experiment was obtained by our laboratory using the insect baculovirus expression system to express and purify the recombinant protein containing the protein kinase region; polyglutamic acid-tyrosine peptide segment [Poly(Glu, Tyr) 4:1] and sodium vanadate were purchased from Sigma; the anti-phosphorylated monoclonal antibody PY99 was purchased from Santa Cruz; horseradish peroxidase labeled goat anti-murine secondary antibody was purchased from Calbiochem; ATP and OPD were purchased from Sangon Biotech (Shanghai) Co., Ltd.; the remaining reagents were purchased from Sinopharm Chemical Reagent Co., Ltd. The reaction ELISA plate (#2592) was purchased from Corning. The full-wavelength microplate reader for experiment reading was a product of Molecular Device, model: SpectraMax 190; the experimental water was distilled water produced by Sinopharm Group.
The compound was centrifuged at 12,000 g for 5 min, and DMSO was added to prepare a 10^-2M stock solution, which was vortexed evenly, then sonicated for 10 min and stored at −40° C. for later use. During the test, the compound was diluted with DMSO from the stock solution to 100 times the test concentration (the DMSO concentration in the system was 1%).
as §1, §2, §3, §4, §5, §6
The IC50 value was obtained by four-parameter regression using the software that came with the microplate reader.

[23] = target: PDGFR-α (Homo sapiens (Human), UniProt P16234); test: Enzyme selectivity test (ELISA), PDGFR-α
PDGFR-α, sequence (P16234 24-1089, species assumed): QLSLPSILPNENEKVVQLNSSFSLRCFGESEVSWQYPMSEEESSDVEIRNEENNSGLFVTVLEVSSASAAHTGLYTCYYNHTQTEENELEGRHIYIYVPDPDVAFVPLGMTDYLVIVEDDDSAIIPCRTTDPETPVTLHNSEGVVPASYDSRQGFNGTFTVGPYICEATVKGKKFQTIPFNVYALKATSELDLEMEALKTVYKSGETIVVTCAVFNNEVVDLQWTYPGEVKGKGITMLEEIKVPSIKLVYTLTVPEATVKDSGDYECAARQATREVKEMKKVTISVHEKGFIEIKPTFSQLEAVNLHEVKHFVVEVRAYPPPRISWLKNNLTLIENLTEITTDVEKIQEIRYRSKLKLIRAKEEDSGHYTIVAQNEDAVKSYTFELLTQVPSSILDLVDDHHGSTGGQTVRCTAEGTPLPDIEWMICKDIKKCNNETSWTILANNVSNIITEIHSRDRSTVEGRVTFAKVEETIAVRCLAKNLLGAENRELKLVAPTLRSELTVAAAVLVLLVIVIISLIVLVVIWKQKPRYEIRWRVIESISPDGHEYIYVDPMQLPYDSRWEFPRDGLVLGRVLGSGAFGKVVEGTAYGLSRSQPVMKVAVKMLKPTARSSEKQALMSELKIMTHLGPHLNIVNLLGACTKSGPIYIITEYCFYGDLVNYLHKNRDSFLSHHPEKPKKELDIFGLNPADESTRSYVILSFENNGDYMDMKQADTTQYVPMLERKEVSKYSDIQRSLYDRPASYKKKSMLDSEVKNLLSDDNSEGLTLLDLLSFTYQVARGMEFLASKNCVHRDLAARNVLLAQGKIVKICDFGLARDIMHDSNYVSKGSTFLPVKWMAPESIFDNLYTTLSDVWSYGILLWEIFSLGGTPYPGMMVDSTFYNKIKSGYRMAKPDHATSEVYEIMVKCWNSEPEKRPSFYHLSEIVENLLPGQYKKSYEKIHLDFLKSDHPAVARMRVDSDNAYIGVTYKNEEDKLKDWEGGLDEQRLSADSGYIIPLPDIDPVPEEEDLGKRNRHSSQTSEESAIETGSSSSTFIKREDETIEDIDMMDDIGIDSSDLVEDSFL
Protocol: as §1, §2, §3, §4, §5, §6, §7

IC50 [1]: > 1 µM | IC50 [2]: > 1 µM | IC50 [3]: > 1 µM | selectivity for kinases [4]: good selectivity | IC50 [5]: > 1 µM | IC50 [6]: > 1 µM | IC50 [7]: > 1 µM | IC50 [8]: > 1 µM | IC50 [9]: > 1 µM | IC50 [10]: > 1 µM | IC50 [11]: > 1 µM | IC50 [12]: > 1 µM | IC50 [13]: > 1 µM | IC50 [14]: > 1 µM | IC50 [15]: > 1 µM | IC50 [16]: > 1 µM | IC50 [17]: > 1 µM | IC50 [18]: > 1 µM | IC50 [19]: > 1 µM | IC50 [20]: > 1 µM | IC50 [21]: > 1 µM | IC50 [22]: 0.0383 ± 0.0028 µM | IC50 [23]: > 1 µM
Compound: CC(NC(=O)c1ccc(C2CC2)c(-c2ccc3nc(Nc4cnn(C5CC5)c4)ncc3c2)c1)c1cccc(C(F)(F)F)c1 (centres unmarked) [Compound S16, 4-cyclopropyl-3-(2-((1-cyclopropyl-1H-pyrazol-4-yl)amino)quinazolin-6-yl)-N-(1-(3-(trifluoromethyl)phenyl)ethyl)benzamide]
